Assays:
[1] = test system: advanced metastatic breast cancer; settings: ref Yardley et al, 2012; cited from earlier work
Source text: Another possible explanation for the apparent insensitivity of MBC to TKI treatments is that the growth of secondary tumors post-metastatic colonization of the lung/liver may still be susceptible to the intended anti-angiogenic inhibition, but that these growth-inhibitory benefits may be diluted by concurrent unintended drug effects that promote tumor spread.

[2] = test system: HT29luc metastases in YFP-SCID mice; assay: experimental HT29luc liver/lymphatic metastasis model (IV); type: in vivo, human HT29luc cells in YFP-SCID mice; settings: VT vs PBS; Fig3A–D; 35DPI imaging
Source text: Figure 3 Vasculotide has no effect on experimental liver metastases from a colon cancer cell line (HT29^luc), nor on experimental lung metastases from a renal cancer cell line (SN12^luc) • A–D An experiment where HT29^luc tumor cells were implanted intravenously into YFP-SCID mice. (A) Kaplan–Meier survival analysis. (B) Quantification of total metastatic burden in the liver and lymphatics, at 35 days post-implantation (DPI), from whole-body bioluminescent imaging (C). (D) Photograph of typical liver metastases. • E–G An experiment where SN12^luc tumor cells were implanted intravenously into YFP-SCID mice. (E) Kaplan–Meier survival analysis. (F) Quantification of total metastatic burden at 50DPI, mostly within the lungs, from whole-body bioluminescent imaging (G). […]
For in vivo BI: Mice were injected intraperitoneally with 150mg/kg luciferin (Promega) 10 minutes prior to and anesthetized with isofluorane just before luminescent pseudocolor imaging (uniform settings: CCD camera locked at -105 °C, exposure=60s, f/1, subject size=1.5cm, bin=8, FOV=23.2cm, full image correction) using the IVIS 200 Imaging System (Caliper/PerkinElmer). Using the Living Image software (v2.50.1, Xenogen), weekly images were analyzed under uniform color range on grayscale photographic overlay. […]

| Compound | response rate, distally disseminated visceral metastatic disease [1] | response rate, locoregionally growing superficial metastatic disease [1] | survival, metastatic burden (IVBI) and liver-specific metastases [2] |
| --- | --- | --- | --- |
| CCN(CC)CCNC(=O)c1c(C)[nH]c(/C=C2\C(=O)Nc3ccc(F)cc32)c1C [sunitinib, reference compound] | 9% | 20% | – |
| CHHHRHSF [Vasculotide, 4-armed maleimide-functionalized polyethylene glycol (PEG) backbone to link together four cysteine-capped T7 peptides, that is, CHHHRHSF] | – | – | No significant differences |
